Measured values taken from PubChem BioAssay (NCI).
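1) Cells in 96-well plates. 2) Compound, 48 h, 5 concentrations. 3) Linear interpolation between surrounding doses. 4) Unreached endpoint = highest concentration. At the GI50, growth is halved. TGI is the concentration that stops growth completely.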

Legend:
Experiment in all cases: NCI-60 cell line screen, 48 h
CCRF-CEM leukemia = tested on: CCRF-CEM leukemia
NCI-H460 lung = tested on: NCI-H460 lung
OVCAR-4 ovarian = tested on: OVCAR-4 ovarian
RXF 393 renal = tested on: RXF 393 renal
SF-268 CNS = tested on: SF-268 CNS
SK-OV-3 ovarian = tested on: SK-OV-3 ovarian
SNB-19 CNS = tested on: SNB-19 CNS
SNB-75 CNS = tested on: SNB-75 CNS
SW-620 colon = tested on: SW-620 colon
UACC-257 melanoma = tested on: UACC-257 melanoma

| SMILES | TGI (CCRF-CEM leukemia) | TGI (NCI-H460 lung) | TGI (OVCAR-4 ovarian) | TGI (RXF 393 renal) | TGI (SF-268 CNS) | TGI (SK-OV-3 ovarian) | TGI (SNB-19 CNS) | TGI (SNB-75 CNS) | TGI (SW-620 colon) | TGI (UACC-257 melanoma) | GI50 (OVCAR-4 ovarian) | GI50 (RXF 393 renal) | GI50 (SF-268 CNS) | GI50 (SNB-19 CNS) | GI50 (SNB-75 CNS) | GI50 (SW-620 colon) | GI50 (UACC-257 melanoma) |
| --- | --- | --- | --- | --- | --- | --- | --- | --- | --- | --- | --- | --- | --- | --- | --- | --- | --- |
| N#Cc1c(-c2ccccc2)[nH]c(=O)n(C2OC(CO)C(O)C(O)C2O)c1=O (stereo unspecified) | > 100 µM | > 100 µM | > 100 µM | > 100 µM | > 100 µM | > 100 µM | > 100 µM | > 100 µM | > 100 µM | > 100 µM |  |  |  |  |  |  |  |
| Cc1ccc2oc(=O)c(C(=O)Nc3nc(C45CC6CC(CC(C6)C4)C5)cs3)cc2c1 | > 100 µM | > 100 µM | > 100 µM | > 100 µM | > 100 µM |  | > 100 µM | > 100 µM | > 100 µM | > 100 µM |  |  |  |  |  |  |  |
| COC(=O)c1cnc(Cl)cn1 | > 100 µM | > 100 µM | 45.5 µM |  | > 100 µM | > 100 µM | > 100 µM | > 100 µM | > 100 µM | > 100 µM |  |  |  |  |  |  |  |
| Cc1ccc(/C=N/Nc2ccc3ccccc3n2)s1 | > 100 µM |  | > 100 µM | > 100 µM | > 100 µM | > 100 µM | 59 µM | > 100 µM | 92.1 µM | > 100 µM |  |  |  |  |  |  |  |
| C=C1C(=O)O[C@H]2[C@@H](O)[C@H](C)CCC[C@]3(C)O[C@H]3CC[C@@]3(C)O[C@@H]3C[C@@H]12 | 5.22 µM |  | 9.85 µM | 7.13 µM | 14.9 µM | 25 µM | 27.7 µM | 15.2 µM | 5.05 µM |  |  |  |  |  |  |  |  |
| CCOC(=O)C(NC(=O)c1ccccc1)(N1CCOCC1)C(F)(F)F (stereo unspecified) | > 100 µM |  | > 100 µM | > 100 µM | > 100 µM | > 100 µM | > 100 µM | > 100 µM | > 100 µM | > 100 µM |  |  |  |  |  |  |  |
| COc1ccc(CN=C(N)N)c2ccccc12 | > 100 µM |  |  | > 100 µM | 38.8 µM | > 100 µM | > 100 µM | 55.2 µM | > 100 µM | > 100 µM |  |  |  |  |  |  |  |
| O=C(O)/C(Cc1ccc([N+](=O)[O-])cc1)=N\O | > 100 µM | > 100 µM | > 100 µM | > 100 µM | > 100 µM | > 100 µM | > 100 µM |  | > 100 µM | > 100 µM |  |  |  |  |  |  |  |
| S=C(c1c[nH]c2ccccc12)N1CCN(Cc2ccccc2)CC1 | > 100 µM | 67.6 µM |  | 30.9 µM | 35.6 µM | 51.4 µM | 35.5 µM | 37 µM | 31.6 µM | 50.9 µM |  |  |  |  |  |  |  |
| Cc1noc(NC2=CC(=O)C(=O)c3ccccc32)c1C |  | > 100 µM | > 100 µM |  | > 100 µM | > 100 µM | > 100 µM | 82.5 µM |  | 64 µM |  |  |  |  |  |  |  |
| COc1ccc(N2C(=O)C3c4[nH]c5ccc(F)cc5c4C4CCC(c5ccccc5)CC4C3C2=O)cc1 (stereo unspecified) | 16.5 µM | 46.8 µM | 32.6 µM |  | 20.3 µM | 49.5 µM | 27.9 µM | 31.6 µM | 59.9 µM | 97 µM |  |  |  |  |  |  |  |
| CC(C)C(/C=C/c1ccc(Cl)c(Cl)c1)=N\NC(=O)N/N=C(/C=C/c1ccc(Cl)c(Cl)c1)C(C)C | > 100 µM | > 100 µM | > 100 µM |  | > 100 µM | > 100 µM | > 100 µM | > 100 µM | > 100 µM | > 100 µM |  |  |  |  |  |  |  |
| CC[C@H]1C=CCC[C@@]2(C[C@@H]3CC[C@H]4[C@@H](C(=O)OCCCCCCCCCCCCCCCC(=O)N(CCCN)C[C@@H](O)CCN)[C@@]5(CCC[C@@H](C)O5)NC(=[N+]34)N2)O1 |  | 3.36 µM | > 10 µM | 4.41 µM | 3.45 µM | 3.19 µM |  |  | 6.99 µM | 3.41 µM |  |  |  |  |  |  |  |
| O=c1[nH]nc(Cc2ccccc2)n1CCO |  | > 100 µM | > 100 µM |  | > 100 µM | > 100 µM | > 100 µM |  | > 100 µM | > 100 µM |  |  |  |  |  |  |  |
| C=CCO[C@]1(CC=C)C(=O)C(=O)OC1C1COC(C)(C)O1 (stereo partly specified) | 89.5 µM | > 100 µM |  | 40.8 µM | > 100 µM |  | > 100 µM | 77.2 µM | 35.4 µM | > 100 µM |  |  |  |  |  |  |  |
| Cc1ccc(/C(O)=C/c2nc3ccccc3s/c2=N/CS(=O)(=O)c2ccc(C)cc2)cc1 | > 10 µM |  | > 10 µM |  | > 10 µM | > 10 µM | > 10 µM | > 10 µM | > 10 µM | > 10 µM |  |  |  |  |  |  |  |
| NNC(=O)c1nnn(CCc2ccccc2)c1C(=O)NN | > 100 µM | > 100 µM | > 100 µM |  |  |  | > 100 µM |  |  | > 100 µM |  |  |  |  |  |  |  |
| Nc1ccc(C(=O)c2cn(CCN3CCOCC3)c3ccccc23)c2ccccc12 | 45.3 µM | > 100 µM | > 100 µM |  | > 100 µM | > 100 µM | > 100 µM |  | > 100 µM | > 100 µM |  |  |  |  |  |  |  |
| Nc1nc(N)c2cc(NCc3ccc(Cl)c(Cl)c3)ccc2n1 |  |  | 2.61 µM | 2.34 µM | 3.12 µM |  | 2.78 µM | 2.48 µM | 1.59 µM | 3.22 µM | 1.34 µM | 1.13 µM | 1.58 µM | 1.46 µM | 1.23 µM | 0.431 µM | 1.71 µM |
| CC1=C(C(=O)c2ccccc2)C23C(=O)N(c4ccccc4)C(=O)C2=C(O)C=CC3(O)N1 (stereo unspecified) | > 100 µM | > 100 µM | > 100 µM | 43 µM | > 100 µM |  | > 100 µM | 77.5 µM | 72.7 µM | > 100 µM |  |  |  |  |  |  |  |
| CC1=Nc2sc3c(c2C2=NCCN12)CCCC3 |  | 39 µM | > 100 µM | 61 µM | > 100 µM |  | > 100 µM | > 100 µM | 52.9 µM | 48.5 µM |  |  |  |  |  |  |  |
| C/C=C/C1OC(O)(C(C)C(O)[C@H](C)C2OC(=O)/C(OC)=C/C(C)=C/[C@@H](C)[C@@H](O)[C@@H](C)C(O)C(C)C/C(C)=C/C=C/C2OC)C[C@@H](OC2CC(O)C(OC(N)=O)C(C)O2)C1C (stereo partly specified) |  | 1.36 µM | 18.9 µM | 1.91 µM | 10.3 µM | > 43.4 µM | 10.5 µM | 2.12 µM | 1.01 µM | < 0.01 µM |  |  |  |  |  |  |  |
| Clc1ccc(C2Nc3ccccc3C3=NCCN32)cc1 (stereo unspecified) | > 100 µM | 53 µM | > 100 µM | 58.8 µM | 84.5 µM | > 100 µM | 94.9 µM |  | 98.6 µM | 36 µM |  |  |  |  |  |  |  |
| O=C(NCc1cccc2ccccc12)N/N=C\c1ccc(Cl)cc1 | > 100 µM | > 100 µM | > 100 µM | > 100 µM | > 100 µM |  | > 100 µM | > 100 µM | > 100 µM | > 100 µM |  |  |  |  |  |  |  |
